From patent publication US12459951B2, “Compounds that interact with RAS superfamily proteins for treatment of cancers, inflammatory diseases, rasopathies, and fibrotic disease” (SHY Therapeutics, LLC, priority 2022, dated 2025)

What was measured:
Erk1/2 phosphorylation = assay: Erk1/2 Phosphorylation Assay (western blot), Panc-1; format: cell-based, human; conditions: at 10 μM, * = activation
In short: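 Phospho-Erk1/2 (Thr202/Tyr204) was detected by western blot in lysates of Panc-1 cells (KRas G12D). These had 6 h, 37° C exposure to 10 μM compound or a dilution series for IC50, in 0.3% DMSO. Cells were either starved overnight in 0.5% FBS with a 15-min 1.5 ng/ml EGF pulse, or kept unstimulated in 10% FBS.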

IL6 = assay: IL-6 Quantification Assay (ELISA), LPS-stimulated RAW 264.7; format: cell-based; set-up: inhibition: dose or concentration left out as unconfirmed; conditions: Mus musculus, RAW264.7; read-out: IL-6: % inh.
TNF-alpha = TNF-alpha Quantification Assay (ELISA), LPS-stimulated RAW 264.7; format: cell-based; conditions: Mus musculus, RAW264.7; at 10 μM; read-out: TNFα: % inh.
[1] = tested on: MiaPaca-2 (expressing KRAS G12C mutant); assay: Proliferation Assay (Cell Viability Assay); format: cell-based; conditions: Homo sapiens, MIA PaCa-2; read-out: Proliferation in MiaPaca-2: IC50
In short: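 After 2–4 days' exposure at 37 °C, 5% CO2 to a single 10 μM final concentration or a dilution series (IC50), percent proliferation inhibition was derived from CellTiter 96 Aqueous One viability readings. The medium contained 0.3% DMSO and 10% FBS. KRAS G12C MiaPaca-2 cells were plated at 2000–5000/well the day before.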

SMILES	IC50 [1] [nM]	% inh of Erk1/2 phosphorylation in Panc-1 (Erk1/2 phosphorylation)	inhibition (IL6) [%]	inhibition at 10 µM (TNF-alpha) [%]
COc1cc(-c2cn3nc(-c4nccn4C)nc(N[C@H]4C[C@@H](OC)C4)c3c2C)ccn1 [Compound 162, N-((1s,3s)-3-Methoxycyclobutyl)-6-(2-methoxypyridin-4-yl)-5-methyl-2-(1-methyl-1H-imidazol-2-yl)pyrrolo[2,1-f][1,2,4]triazin-4-amine]	> 1000	A (1-25% inhibition)	25 to 49	25 to 49
COc1ccnc(Nc2nc(-c3nccn3C)nn3cc(-c4cnn(C(C)C)c4)c(C)c23)c1 [Compound 165, 6-(1-Isopropyl-1H-pyrazol-4-yl)-N-(4-methoxypyridin-2-yl)-5-methyl-2-(1-methyl-1H-imidazol-2-yl)pyrrolo[2,1-f][1,2,4]triazin-4-amine]	< 150	C* (46-84% activation)	50 to 74	1 to 24
COc1ccnc(Nc2nc(-c3nccn3C)nn3cc(-c4cccnc4)c(-c4ccccn4)c23)c1 [Compound 166, N-(4-Methoxypyridin-2-yl)-2-(1-methyl-1H-imidazol-2-yl)-5-(pyridin-2-yl)-6-(pyridin-3-yl)pyrrolo[2,1-f][1,2,4]triazin-4-amine]	> 1000	B* (26-49% activation)	75 to 100	75 to 100
COc1ccnc(Nc2nc(-c3nccn3C)nn3cc(-c4cccnc4)c(-c4cccnc4)c23)c1 [Compound 169, N-(4-methoxypyridin-2-yl)-2-(1-methyl-1H-imidazol-2-yl)-5,6-di(pyridin-3-yl)pyrrolo[2,1-f][1,2,4]triazin-4-amine]	< 150	B* (26-49% activation)	1 to 24	0

Continued, in another order:

IC50 [1] [nM]	SMILES	% inh of Erk1/2 phosphorylation in Panc-1 (Erk1/2 phosphorylation)	inhibition (IL6) [%]	inhibition at 10 µM (TNF-alpha) [%]
> 1000	COc1cc(Nc2nc(-c3nccn3C)nn3cc(-c4cccnc4)c(-c4ccccn4)c23)ncn1 [Compound 167, N-(6-Methoxypyrimidin-4-yl)-2-(1-methyl-1H-imidazol-2-yl)-5-(pyridin-2-yl)-6-(pyridin-3-yl)pyrrolo[2,1-f][1,2,4]triazin-4-amine]	A (1-25% inhibition)	0	0
> 1000	CO[C@H]1C[C@H](Nc2nc(-c3nccn3C)nn3cc(-c4cccnc4)c(-c4ccccn4)c23)C1 [Compound 168, N-((1r,3r)-3-Methoxycyclobutyl)-2-(1-methyl-1H-imidazol-2-yl)-5-(pyridin-2-yl)-6-(pyridin-3-yl)pyrrolo[2,1-f][1,2,4]triazin-4-amine]	0 (0% inhibition)	1 to 24	25 to 49
